According to PubChem BioAssay AID1963837 (Molecular Pharmacology Branch, DTP, NCI, 2024):

Test system: 843126-344-R-J1-PDC complex spheroid viability
Assay: Anticancer human tumor 843126-344-R-J1-PDC patient-derived melanoma cell line growth inhibition [POLQ]
Conditions: for IC50: curve of first compound; for viability, T/C: stronger effect = lower value
Method: Multicellular complex tumor spheroid response to Polymerase (POL) inhibitors (novobiocin, ART-558, RP6685) in combination with a variety of drugs and investigational agents in selected tumor cell lines
The POL inhibitors (novobiocin, ART-558, and RP6685) were evaluated both individually and in combination with standard of care and investigational anticancer small molecules within a complex spheroid model of solid tumors. . Complex spheroids include a stromal component modeled by human endothelial cells (HUVEC) and fibroblasts modeled by human mesenchymal stem cells (MSCs). The concentration ranges selected for each drug and investigational agent were based upon clinically achievable concentrations if the clinical Cmax of the agent was known.
Compounds. The drugs and investigational agents: novobiocin (NSC847541), ART-558 (NSC835418), RP-6685 (NSC848927), peposertib (NSC802822), ceralasertib (NSC780249), elimusertib (NSC800525), camonsertib (NSC841442), AZD-1390 (NSC803789), olaparib (NSC753686), talazoparib (NSC767125), rucaparib (NSC756644), sotorasib (NSC818433), MRTX-1133 (NSC836407), SN-38 (NSC673596), topotecan (NSC609699), epotoside (NSC141540), doxorubicin (NSC123127), gemcitabine (NSC613327), 5-fluorouracil (NSC19893), paclitaxel (NSC125973), vemurafenib (NSC761431), MSA-2 (NSC828583), SN-011 (NSC837082), adavosertib (NSC754352), prexasertib (NSC758257), carboplatin (NSC241240) and oxaliplatin (NSC266046), were obtained from the National Cancer Institute (NCI) Developmental Therapeutics Program Chemical Repository (21). The FDA-approved anticancer drug set is available from the Developmental Therapeutics Program at https://dtp.cancer.gov/organization/dscb/obtaining/. […] The stock solutions were prepared in dimethyl sulfoxide (DMSO, Sigma-Aldrich, St. Louis, MO, cat. D2650), except for the platinum compounds which were prepared in saline (Quality Biological, Gaithersburg, MD, cat. 114-055-101), at 800-fold the tested concentration and stored at -70 degrees C prior to their use. All drugs and investigational agents were tested over a range starting from a high concentration at or near the clinical Cmax and decreasing in half-log increments. If the clinical Cmax for an agent had not been determined, the highest concentration tested was 10 microM, except for SN-38, which was tested at a high concentration of 1 microM.
Cell Culture. All cells were maintained in an incubator at 37 degrees C and 5% CO2 with 95% humidity. The PDC lines were cultured according to standard operating procedures established by the NCI PDMR (https://pdmr.cancer.gov). Table 3 of the manuscript, lists the cell lines along with the number of the three cell types plated to form the mct-spheroids and media for tumor cell growth. After thawing, all PDC lines, except 997537-175-T-J1-PDC and 415267-285-R-J2-PDC, were cultured in Matrigel-coated flasks prepared with a working solution of 1X Ham's F-12 nutrient mix, without supplementation (Thermo Fisher Scientific, cat. 11765054), 100 U/mL penicillin-streptomycin (Thermo Fisher Scientific, cat. 15140122), and 2.5% Matrigel (Corning Inc., Corning, NY, cat. 354248) for the first three passages. The two PDC lines 997537-175-T-J1-PDC and 415267-285-R-J2-PDC were cultured on uncoated flasks. The 857933-349-R-J2-PDC line was cultured in 6C/Colon 1B media containing advanced DMEM/F-12 (Thermo Fisher Scientific, cat. 12634028), 10 mM HEPES (Thermo Fisher Scientific, cat. 15630080), 1X GlutaMAX supplement (Thermo Fisher Scientific, cat. 35050061), 0.1 mg/mL primocin (InvivoGen, San Diego, CA, cat. ant-pm-2), 10% defined fetal bovine serum, heat inactivated (HyClone Laboratories Inc., Logan, UT, cat. SH30070.03HI), 50% L-WRN conditioned media (ATCC, cat. CRL-3276), 1.25 mM N-Acetyl-L-cysteine (Sigma-Aldrich, cat. A9165), 10 mM nicotinamide (Sigma-Aldrich, cat. N0636), 1X B-27 supplement (Thermo Fisher Scientific, cat. 17504044), 1X N-2 supplement (Thermo Fisher Scientific, cat. […]

[1] = second compound 0.0316 µM, first compound 0.0316 µM
[2] = second compound 0.0316 µM, first compound 0.1 µM
[3] = second compound 0.0316 µM, first compound 0.316 µM
[4] = second compound 0.0316 µM, first compound 1 µM
[5] = second compound 0.0316 µM, first compound 3.16 µM
[6] = second compound 0.0316 µM, first compound 10 µM
[7] = second compound 0.1 µM, first compound 0.0316 µM
[8] = second compound 0.1 µM, first compound 0.1 µM
[9] = second compound 0.1 µM, first compound 0.316 µM
[10] = second compound 0.1 µM, first compound 1 µM
[11] = second compound 0.1 µM, first compound 3.16 µM
[12] = second compound 0.1 µM, first compound 10 µM
[13] = second compound 0.316 µM, first compound 0.0316 µM
[14] = second compound 0.316 µM, first compound 0.1 µM
[15] = second compound 0.316 µM, first compound 0.316 µM
[16] = second compound 0.316 µM, first compound 1 µM
[17] = second compound 0.316 µM, first compound 3.16 µM
[18] = second compound 0.316 µM, first compound 10 µM
[19] = second compound 1 µM, first compound 0.0316 µM
[20] = second compound 1 µM, first compound 0.1 µM
[21] = second compound 1 µM, first compound 0.316 µM
[22] = second compound 1 µM, first compound 1 µM
[23] = second compound 1 µM, first compound 3.16 µM
[24] = second compound 1 µM, first compound 10 µM
[25] = second compound 3.16 µM, first compound 0.0316 µM
[26] = second compound 3.16 µM, first compound 0.1 µM
[27] = second compound 3.16 µM, first compound 0.316 µM
[28] = second compound 3.16 µM, first compound 1 µM
[29] = second compound 3.16 µM, first compound 3.16 µM
[30] = second compound 3.16 µM, first compound 10 µM
[31] = second compound 10 µM, first compound 0.0316 µM
[32] = second compound 10 µM, first compound 0.1 µM
[33] = second compound 10 µM, first compound 0.316 µM
[34] = second compound 10 µM, first compound 1 µM
[35] = second compound 10 µM, first compound 3.16 µM
[36] = second compound 10 µM, first compound 10 µM
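Wherever viability, T/C is given: spheroids exposed to drugs for seven days before readout.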

## C=CC(=O)N1CCN(c2nc(=O)n(-c3c(C)ccnc3C(C)C)c3nc(-c4c(O)cccc4F)c(F)cc23)C(C)C1 (centres undefined) + Cc1cccc(N(C)C(=O)C2C(O)CCN2c2nc(C)cc(C(F)(F)F)c2C#N)c1
Second compound 0.0316 µM
  IC50: > 10 µM
Second compound 0.1 µM
  IC50: > 10 µM
Second compound 0.316 µM
  IC50: > 10 µM
Second compound 1 µM
  IC50: > 10 µM
Second compound 3.16 µM
  IC50: > 10 µM
Second compound 10 µM
  IC50: > 10 µM
[1]
  viability, T/C: 87.6%
[2]
  viability, T/C: 95.2%
[3]
  viability, T/C: 122%
[4]
  viability, T/C: 94.6%
[5]
  viability, T/C: 89.6%
[6]
  viability, T/C: 78.6%
[7]
  viability, T/C: 81.8%
[8]
  viability, T/C: 81.3%
[9]
  viability, T/C: 94.7%
[10]
  viability, T/C: 97%
[11]
  viability, T/C: 80.7%
[12]
  viability, T/C: 80.7%
[13]
  viability, T/C: 81.3%
[14]
  viability, T/C: 85.6%
[15]
  viability, T/C: 91.1%
[16]
  viability, T/C: 107%
[17]
  viability, T/C: 84%
[18]
  viability, T/C: 69.9%
[19]
  viability, T/C: 89.7%
[20]
  viability, T/C: 84.7%
[21]
  viability, T/C: 84.2%
[22]
  viability, T/C: 90.2%
[23]
  viability, T/C: 106%
[24]
  viability, T/C: 71.3%
[25]
  viability, T/C: 91.2%
[26]
  viability, T/C: 74.5%
[27]
  viability, T/C: 104%
[28]
  viability, T/C: 91.5%
[29]
  viability, T/C: 120%
[30]
  viability, T/C: 66.8%
[31]
  viability, T/C: 77.1%
[32]
  viability, T/C: 81%
[33]
  viability, T/C: 89.2%
[34]
  viability, T/C: 89.5%
[35]
  viability, T/C: 83.5%
[36]
  viability, T/C: 70.1%

## O=c1[nH]cc(F)c(=O)[nH]1 + COC1C(OC(N)=O)C(O)C(Oc2ccc3c(O)c(NC(=O)c4ccc(O)c(CC=C(C)C)c4)c(=O)oc3c2C)OC1(C)C
Second compound 0.0316 µM
  IC50: > 10 µM
Second compound 0.1 µM
  IC50: > 10 µM
Second compound 0.316 µM
  IC50: > 10 µM
Second compound 1 µM
  IC50: > 10 µM
Second compound 3.16 µM
  IC50: > 10 µM
Second compound 10 µM
  IC50: > 10 µM
[1]
  viability, T/C: 97.9%
[2]
  viability, T/C: 76.6%
[3]
  viability, T/C: 91.9%
[4]
  viability, T/C: 102%
[5]
  viability, T/C: 99.3%
[6]
  viability, T/C: 87.7%
[7]
  viability, T/C: 99.2%
[8]
  viability, T/C: 99%
[9]
  viability, T/C: 102%
[10]
  viability, T/C: 84.2%
[11]
  viability, T/C: 82.7%
[12]
  viability, T/C: 73.3%
[13]
  viability, T/C: 92.4%
[14]
  viability, T/C: 116%
[15]
  viability, T/C: 89.5%
[16]
  viability, T/C: 81.7%
[17]
  viability, T/C: 75.3%
[18]
  viability, T/C: 70.4%
[19]
  viability, T/C: 76.6%
[20]
  viability, T/C: 85.4%
[21]
  viability, T/C: 80.3%
[22]
  viability, T/C: 90.2%
[23]
  viability, T/C: 92.8%
[24]
  viability, T/C: 64.3%
[25]
  viability, T/C: 94.2%
[26]
  viability, T/C: 94.3%
[27]
  viability, T/C: 89.7%
[28]
  viability, T/C: 103%
[29]
  viability, T/C: 75.2%
[30]
  viability, T/C: 70.4%
[31]
  viability, T/C: 78.8%
[32]
  viability, T/C: 88.1%
[33]
  viability, T/C: 93%
[34]
  viability, T/C: 80.6%
[35]
  viability, T/C: 94.3%
[36]
  viability, T/C: 71.5%
